Earlier results on one molecule are cited in US12545694B2, “Cannabidiol derivatives, preparation method thereof and use thereof” (CHENGDU BAIYU PHARMACEUTICAL CO., LTD., priority 2020, dated 2026).

The conditions of the series: human.

As for `C=C(C)[C@@H]1CCC(C)=C[C@H]1c1c(O)cc(CCCCC)cc1O` [CBD, cannabidiol], the oral bioavailability result is “about 6%”.
